The assay concerns the target T1, hT1R2/hT1R3 sweet receptor (Homo sapiens, UniProt Q7RTX0+Q8TE23).
T1 construct: expressed in transfected cells; host or cells: HEK293 derivative stably expressing Gα15, clone S-9
T1 sequence (Q8TE23 20-839): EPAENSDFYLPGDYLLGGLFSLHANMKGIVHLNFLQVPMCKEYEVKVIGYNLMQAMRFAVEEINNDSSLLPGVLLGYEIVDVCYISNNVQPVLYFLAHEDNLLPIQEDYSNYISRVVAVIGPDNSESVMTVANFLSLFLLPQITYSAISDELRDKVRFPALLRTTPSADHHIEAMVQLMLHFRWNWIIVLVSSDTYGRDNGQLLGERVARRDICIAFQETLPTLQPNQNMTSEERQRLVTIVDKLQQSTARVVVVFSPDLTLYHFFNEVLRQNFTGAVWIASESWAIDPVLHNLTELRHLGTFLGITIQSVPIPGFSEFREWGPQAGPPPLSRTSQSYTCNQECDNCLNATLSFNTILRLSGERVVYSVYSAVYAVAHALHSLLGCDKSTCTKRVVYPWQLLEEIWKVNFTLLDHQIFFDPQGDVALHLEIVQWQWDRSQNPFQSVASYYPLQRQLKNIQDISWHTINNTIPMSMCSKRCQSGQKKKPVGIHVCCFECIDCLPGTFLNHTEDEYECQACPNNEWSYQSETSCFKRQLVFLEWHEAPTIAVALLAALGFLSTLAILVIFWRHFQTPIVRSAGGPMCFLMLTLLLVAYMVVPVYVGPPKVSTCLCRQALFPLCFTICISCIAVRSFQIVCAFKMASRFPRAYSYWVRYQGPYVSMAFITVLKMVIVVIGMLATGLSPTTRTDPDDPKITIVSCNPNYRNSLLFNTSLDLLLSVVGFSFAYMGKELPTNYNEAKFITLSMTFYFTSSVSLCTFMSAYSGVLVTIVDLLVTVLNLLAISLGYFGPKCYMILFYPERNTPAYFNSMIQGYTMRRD
T1 sequence (Q7RTX0 21-852): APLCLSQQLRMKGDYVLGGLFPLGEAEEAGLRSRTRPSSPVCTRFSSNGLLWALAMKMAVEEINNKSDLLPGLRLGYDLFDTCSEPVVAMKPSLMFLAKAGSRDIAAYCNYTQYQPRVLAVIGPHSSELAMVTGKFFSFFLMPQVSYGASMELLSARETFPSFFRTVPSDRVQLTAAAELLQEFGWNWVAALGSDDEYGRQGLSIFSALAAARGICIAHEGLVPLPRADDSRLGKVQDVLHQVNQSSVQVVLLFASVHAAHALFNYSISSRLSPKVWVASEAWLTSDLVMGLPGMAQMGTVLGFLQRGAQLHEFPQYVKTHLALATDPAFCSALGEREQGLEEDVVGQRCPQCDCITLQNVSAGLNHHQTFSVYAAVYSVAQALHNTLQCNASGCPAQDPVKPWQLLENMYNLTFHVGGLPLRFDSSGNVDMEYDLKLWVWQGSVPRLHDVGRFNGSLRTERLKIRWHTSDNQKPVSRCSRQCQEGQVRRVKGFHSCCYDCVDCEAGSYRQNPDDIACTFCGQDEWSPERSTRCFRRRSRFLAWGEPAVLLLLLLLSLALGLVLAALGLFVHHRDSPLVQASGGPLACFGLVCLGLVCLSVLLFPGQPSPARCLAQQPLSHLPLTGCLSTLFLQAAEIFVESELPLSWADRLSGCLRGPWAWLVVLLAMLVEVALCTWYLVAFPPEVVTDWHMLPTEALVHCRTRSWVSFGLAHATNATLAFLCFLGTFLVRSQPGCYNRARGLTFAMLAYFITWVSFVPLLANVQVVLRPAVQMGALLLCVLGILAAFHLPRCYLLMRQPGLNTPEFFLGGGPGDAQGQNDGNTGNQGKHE
Nature of the assay: In vitro hT1R2/hT1R3 sweet taste receptor activation assay (FLIPR, dose response). It is filed as cell-based. As for the experimental part: Activity was determined using an automated fluorometric imaging assay on a FLIPR instrument (Fluorometric Intensity Plate Reader, Molecular Devices, Sunnyvale, Calif.) (designated FLIPR assay). […] S-9 cells were grown for 24 hours at 37° C. S-9 cells were then loaded with the calcium dye Fluo-3AM (Molecular Probes, Eugene, Oreg.), 4 µM in a phosphate buffered saline (D-PBS) (Invitrogen, Carlsbad, Calif.), for 1 hour at room temperature. After replacement with 25 µl D-PBS, stimulation was performed in the FLIPR instrument and at room temperature by the addition of 25 µl D-PBS supplemented with different stimuli at concentrations corresponding to twice the desired final level.
For dose-responses analysis, stimuli were presented in duplicates at 10 different concentrations ranging from 60 nM to 30 µM. Activities were normalized to the response obtained with 400 mM D-fructose, a concentration that elicits maximum receptor response. EC50s were determined using a non-linear regression algorithm (using a Senomyx, Inc. software), where the Hill slope, bottom asymptotes and top asymptotes were allow to vary.

[1] abbreviates: read-out: EC50 for activation of a hT1R2/hT1R3 sweet receptor expressed in an HEK293 cell line.
[2] abbreviates: Table E, Sweet Enhancer Amides, read-out: Sweet EC50.

Read-outs that look alike come from different tables or passages of the source.

Regarding `Cc1c(F)c(F)c(C(=O)N[C@@H](C)C(C)C)c(F)c1F` [Example 163, (S)-2,3,5,6-tetrafluoro-4-methyl-N-(3-methylbutan-2-yl)benzamide], the EC50 under setting [1] was determined as 600 nM.
Take `Cc1cc(Br)cc(C)c1NC(=O)N1Cc2ccccc2C1` [Example E99, N-(4-bromo-2,6-dimethylphenyl)isoindoline-2-carboxamide]: the EC50 under setting [2] is 930 nM.
Turning to `O=C(Nc1ccc(F)c(F)c1F)N1Cc2ccccc2C1` [Example E103, N-(2,3,4-trifluorophenyl)isoindoline-2-carboxamide], the EC50 under setting [2] came to 2580 nM.
On the same count and under the same terms, the figure for `CSc1nc(C)c(C(=O)Nc2ccccc2)c(C)c1C#N` [Example E95, 5-Cyano-2,4-dimethyl-6-methylsulfanyl-N-phenyl-nicotinamide] is 3580 nM; for `CCCCC(C)NC(=O)c1c(F)c(F)c(C)c(F)c1F` (stereo not shown) [Example E34, 2,3,5,6-tetrafluoro-N-(hexan-2-yl)-4-methylbenzamide] it is 710 nM; for `Cc1cccc(C(=O)NC2CCCCC2C)c1Cl` (stereo not shown) [Example E57, 2-chloro-3-methyl-N-(2-methylcyclohexyl)benzamide] it is 1950 nM.
As to `C=CCc1c(F)c(F)c(C(=O)N[C@@H](C)C(C)(C)C)c(F)c1F` [Example E130, (S)-4-allyl-N-(3,3-dimethylbutan-2-yl)-2,3,5,6-tetrafluorobenzamide], the EC50 under setting [2] is 430 nM.
As to `CC1CCC(NC(=O)c2ccc(F)c(C(F)(F)F)c2)CC1` (stereo not shown) [Example E60, 4-fluoro-N-(4-methylcyclohexyl)-3-(trifluoromethyl)benzamide], the EC50 under setting [2] worked out at 2370 nM.
Take `CCc1cccc(NC(=O)c2c(C)cccc2OC)c1` [Example E98, N-(3-ethylphenyl)-2-methoxy-6-methylbenzamide]: under setting [2], the EC50 was 4630 nM.
On the same count and under the same terms, the figure for `Cc1c(F)c(F)c(C(=O)N[C@H](C)C(C)(C)C)c(F)c1F` [Example E31, (R)-N-(3,3-dimethylbutan-2-yl)-2,3,5,6-tetrafluoro-4-methylbenzamide] is 490 nM; for `Cc1nocc1C(=O)NC1c2ccccc2CCC1C` (stereo not shown) [Example E6, 3-methyl-N-(2-methyl-1,2,3,4-tetrahydronaphthalen-1-yl)isoxazole-4-carboxamide] it is 1480 nM.
Consider `O=C(Nc1c(F)cc(Br)cc1F)N1Cc2ccc(Br)cc2C1` [Example 198, 5-Bromo-N-(4-bromo-2,6-difluorophenyl)isoindoline-2-carboxamide], for which the EC50 under setting [1] is 420 nM.
As for `COc1c(Cl)cc(C(=O)Nc2ccc(C)cc2C)cc1Cl` [Example E86, 3,5-dichloro-N-(2,4-dimethylphenyl)-4-methoxybenzamide], under setting [2], the EC50 turned out to be 1480 nM.
The same measure, in the same setting: with `CC1CCC(NC(=O)c2cccc(Cl)c2O)c2ccccc21` (stereo not shown) [Example E4, 3-chloro-2-hydroxy-N-(4-methyl-1,2,3,4-tetrahydronaphthalen-1-yl)benzamide] the figure was 1610 nM; with `CC1CCCC(NC(=O)c2ccnc(Cl)c2)C1C` (stereo not shown) [Example E44, 2-chloro-N-(2,3-dimethylcyclohexyl)isonicotinamide], 1080 nM; with `COc1cc(F)c(NC(=O)N2Cc3cccc(C)c3C2)c(OC)c1` [Example E117, N-(2-fluoro-4,6-dimethoxyphenyl)-4-methylisoindoline-2-carboxamide], 90 nM.
With `COc1c(Cl)ccc(Cl)c1C(=O)Nc1ccc(C)cc1C` [Example E97, 3,6-Dichloro-N-(2,4-dimethyl-phenyl)-2-methoxy-benzamide], the EC50 under setting [2] came out at 4250 nM.
As for `COc1cccc2c1CCCC2NC(=O)c1cccc(O)c1O` (stereo not shown) [Example E10, 2,3-dihydroxy-N-(5-methaxy-1,2,3,4-tetrahydronaphthalen-1-yl)benzamide], under setting [2], the EC50 turned out to be 2440 nM.
As to `O=C(Nc1ccc(Cl)cc1Cl)N1CCc2ccccc2C1` [Example E109, N-(2,4-dichlorophenyl)-3,4-dihydroisogumoline-2(1H)-carboxamide], the EC50 under setting [2] stood at 2340 nM.
With `COc1ccc(NC(=O)c2cc(Cl)c(OC)c(Cl)c2)cc1` [Example E93, 3,5-dicbloro-4-methoxy-N-(4-methoxyphenyl)benzamide], the EC50 under setting [2] is 3240 nM.
On the same count and under the same terms, with `CC1CCCCC1NC(=O)c1cccc(C(F)(F)F)c1` (stereo not shown) [Example E59, N-(2-methylcyclohexyl)-3-(trifluoromethyl)benzamide] the figure was 2340 nM; with `COc1c(Cl)ccc(Cl)c1C(=O)Nc1ccccc1F` [Example E84, 3,6-dichloro-N-(2-fluorophenyl)-2-methoxybenzamide], 830 nM; with `Cc1c(F)c(F)c(C(=O)NC2CCCCC2)c(F)c1F` [Example E45, N-cyclohexyl-2,3,5,6-tetrafluoro-4-methylbenzamide], 1130 nM.
Regarding `COc1ccc(NC(=O)N2Cc3cccc(C)c3C2)c(C)c1` [Example E116, N-(4-methoxy-2-methylphenyl)-4-methylisomdoline-2-carboxamide], under setting [2], the EC50 turned out to be 710 nM.
In the case of `CCOc1cccc2c1CCCC2NC(=O)c1conc1C` (stereo not shown) [Example 181], under setting [1], the EC50 was found to be 4500 nM.
Take `O=C(N[C@@H]1CCCc2ccccc21)c1cncc(Br)c1` [Example E21, (R)-5-bromo-N-(1,2,3,4-tetrahydronaphthalen-1-yl)nicotinamide]: under setting [2], the EC50 turned out to be 4190 nM.
Take `O=C(N[C@@H]1CCCc2ccccc21)c1cccc(Cl)c1O` [Example E2, (R)-3-chloro-2-hydroxy-N-(1,2,3,4-tetrahydronaphthalen-1-yl)benzamide]: under setting [2], the EC50 came out at 650 nM.
In the case of `COc1ccc(NC(=O)c2ccc(F)c(Cl)c2)c(OC)c1` [Example E94, 3-chloro-N-(2,4-dimethoxyphenyl)-4-fluorobenzamide], the EC50 under setting [2] is 3560 nM.
On the same count and under the same terms, the figure for `Cc1c(Cl)cccc1C(=O)NC1CCCCC1C` (stereo not shown) [Example E80, 3-chloro-2-methyl-N-(2-methylcyclohexyl)benzamide] is 4290 nM.
As to `CSc1cc(C)c(C(=O)N[C@H](C)C(C)(C)C)c(C)c1` [Example 200, (R)-N-(3,3-dimethylbutan-2-yl)-2,6-dimethyl-4-(methylthio)benzamide], under setting [1], the EC50 is 1020 nM.
For `CC1CCCCC1NC(=O)c1cc(Cl)ccc1Cl` (stereo not shown) [Example E33, 2,5-dichloro-N-(2-methylcyclohexyl)benzamide], the EC50 under setting [2] turned out to be 630 nM.
Consider `CC1CCCC(NC(=O)c2c(Cl)cccc2Cl)C1C` (stereo not shown) [Example E64, 2,6-dichloro-N-(2,3-dimethylcyclohexyl)benzamide], for which the EC50 under setting [2] worked out at 2770 nM.
Regarding `CCCc1c(F)c(F)c(C(=O)N[C@@H](C)C(C)C)c(F)c1F` [Example 192, (S)-2,3,5,6-tetrafluoro-N-(3-methylbutan-2-yl)-4-propylbenzamide], under setting [1], the EC50 worked out at 140 nM.
Regarding `O=C(N[C@@H]1CCCc2ccccc21)c1cccc(Cl)c1` [Example E22, (R)-3-chloro-N-(1,2,3,4-tetrahydronaphthalen-1-yl)benzamide], the EC50 under setting [2] was 4520 nM.

Source of the values: patent US20060045953A1 (priority 2004, published 2006).
